Results: patent publication US10064858B2, “Methods and compositions for treating bacterial infections with iron chelators” (THE UNITED STATES OF AMERICA, AS REPRESENTED BY THE …, priority 2011, dated 2018)
Where two headings read alike, the source gives them in different places.

Tests used:
Format in all cases: cell-based
K. pneumonia = assay: MIC, CLSI microdilution (Tables 1 and 6); conditions: Klebsiella pneumoniae, Table 1, read-out: MIC of Iron Chelators
Method: (§1) The minimal inhibitory concentration (MIC) of non-toxic iron chelators was determined against standard strains of MDR bacteria and clinical isolates according to the guidelines of the Clinical and Laboratory Standards Institute (CLSI).
(§2) Individual MICs were determined following the microdilution method recommended by CLSI in cationic-adjusted Mueller-Hinton Broth (CAMHB), or M9 media. […] Tests were performed in triplicate. MIC of iron chelators were determined for noscomial ESKAPE pathogens.
(§3) MIC were determined in CAMHB media as described above in Example 8.

S. aureus = assay: MIC, CLSI microdilution (Tables 1 and 6); conditions: Staphylococcus aureus, Table 1, read-out: MIC of Iron Chelators
Method: as §1, §2, §3

E. coli = assay: MIC, CLSI microdilution (Tables 1 and 6); conditions: Escherichia coli, Table 1, read-out: MIC of Iron Chelators
Method: as §1, §2, §3

P. aeruginosa = assay: MIC, CLSI microdilution (Tables 1 and 6); conditions: Pseudomonas aeruginosa, Table 1, read-out: MIC of Iron Chelators
Method: as §1, §2, §3

Acinetobacter baumannii = assay: MIC, CLSI microdilution (Tables 1 and 6)
Method: as §1, §2, §3

[1] = test system: A. baumannii AB 19606, AB 17978; assay: Checkerboard assay, chelator with antibiotic (FIC)
Excerpt: Drug interactions were initially evaluated with the “checkerboard” microdilution design, which provided a matrix of all drug combinations assayed in terms of fractions of the previously determined MIC. The checkerboard microdilution design is described in R. J. Tallarida, “Drug Synergism: Its Detection and Applications,” Journal of Pharmacology and Experimental Therapeutics, 865-872 (2001); and in R. L. White, et al., (1996), supra. FIGS. 39A and 39B show the wellplates having different concentrations of iron chelator and antibiotic, as labeled along the x-axis and y-axis. […] The checkerboard assay was used to asses other combinations of iron chelators and antibiotics. The fractional inhibitory concentration index (FIC), which was calculated as follows: FIC=(MIC A in combination/MIC A)+(MIC B in combination/MIC B). […] Blank spaces indicate concentrations not tested. […] Against the species PA PAO1 and PA 27853, all the antibiotics except for Ami.

[2] = test system: clinical isolates of A. baumannii; assay: MIC for clinical isolates in CAMHB media (Table 3); conditions: Acinetobacter baumannii
Method: as §2

[3] = test system: multi-drug resistant bacterial species; assay: Time kill method, synergy with rifampin (summary)
Method: (§4) Reductions in colony forming units (CFU)/mL were determined over time (time-kill assay) after exposure to VK28 and deferiprone (DFP), the two iron chelators that performed best in MIC assays when compared to controls. To better represent the iron content found in the human body, MIC and time-kill assays were also determined in minimal media and tissue culture media. Time-Kill assays were performed as previously described in G. P. Neupane et al., “In vitro time-kill activities of ciprofloxacin alone and in combination with the iron chelator deferasirox against Vibrio vulnificus,” European Journal of Clinical Microbiology and Infectious Diseases, 407-410 (2010); and R. L. White, et al., “Comparison of Three Different In Vitro Methods of Detecting synergy: Time-Kill, Checkerboard, and E test,” Journal of Antimicrobial Agents and Chemotherapy, 1914-1918 (1996). Initial inocula, for example 1×10^6 CFU/mL or 1×10^7 CFU/mL were challenged with iron chelator with and/or without an antibiotic. Cells were allowed to grow in CAMHB at 37° C. for 24 hours. Time-kill results were analyzed by determining the change in log 10 numbers of CFU/ml at 0, 6, and 24 h, compared to counts at 0 h. Antimicrobials were considered bactericidal at the lowest concentration that reduced the size of the original inoculum by >3 log 10 CFU/ml (99.9%) over each of the time periods and were considered bacteriostatic if the inoculum's size was reduced by 0 to <3 log 10 CFU/ml.

E. coli EC35218 = assay: Time-kill assay in CAMHB
Method: as §4
In this example, time-kill assays were performed as described in Example 9 against different multi-drug resistant bacteria, namely E. coli and MRSA.
In this example, time-kill assays were performed as described in Example 9 using ApoL1 as the iron chelator against two different E. coli strains. […] Time-kill results were analyzed by determining the change in log 10 numbers of CFU/mL at 6 and 24 hours.
In this example, time-kill assays were performed as described in Example 9 using Apo6619 as the iron chelator in combination with Rifampin against E. coli 35718. […] Time-kill results were analyzed by determining the change in log 10 numbers of CFU/mL at 0, 5 and 24 hours.

[4] = ATCC43888, ATCC 43888 (0157:H7)
[5] = ATCC17978, ATCC 17978, Table 1, read-out: MIC of Iron Chelators
[6] = ATCC19606, ATCC 19606, Table 1, read-out: MIC of Iron Chelators
[7] = AB 17978, in combination with Amikacin
[8] = AB 17978, in combination with Cefotaxine
[9] = AB 17978, in combination with Colisitin (Colistin)
[10] = AB 17978, in combination with Doxycycline
[11] = AB 17978, in combination with Rifampin
[12] = AB 19606, in combination with Amikacin
[13] = AB 19606, in combination with Cefotaxine
[14] = AB 19606, in combination with Colisitin (Colistin)
[15] = AB 19606, in combination with Doxycycline
[16] = AB 19606, in combination with Rifampin
[17] = AB967, read-out: MIC of Iron Chelators
[18] = AB2828, read-out: MIC of Iron Chelators
[19] = AB3340, read-out: MIC of Iron Chelators
[20] = AB3560, read-out: MIC of Iron Chelators
[21] = AB3638, read-out: MIC of Iron Chelators
[22] = AB3785, read-out: MIC of Iron Chelators
[23] = AB3806, read-out: MIC of Iron Chelators
[24] = AB3917, read-out: MIC of Iron Chelators
[25] = AB3927, read-out: MIC of Iron Chelators
[26] = AB4025, read-out: MIC of Iron Chelators
[27] = AB4026, read-out: MIC of Iron Chelators
[28] = AB4027, read-out: MIC of Iron Chelators
[29] = AB4052, read-out: MIC of Iron Chelators
[30] = AB4269, read-out: MIC of Iron Chelators
[31] = AB4448, read-out: MIC of Iron Chelators
[32] = AB4456, read-out: MIC of Iron Chelators
[33] = AB4490, read-out: MIC of Iron Chelators
[34] = AB4498, read-out: MIC of Iron Chelators
[35] = AB4795, read-out: MIC of Iron Chelators
[36] = AB4857, read-out: MIC of Iron Chelators
[37] = AB4878, read-out: MIC of Iron Chelators
[38] = AB4932, read-out: MIC of Iron Chelators
[39] = AB4957, read-out: MIC of Iron Chelators
[40] = AB4991, read-out: MIC of Iron Chelators
[41] = AB5001, read-out: MIC of Iron Chelators
[42] = AB5075, read-out: MIC of Iron Chelators
[43] = AB5197, read-out: MIC of Iron Chelators
[44] = AB5256, read-out: MIC of Iron Chelators
[45] = AB5674, read-out: MIC of Iron Chelators
[46] = AB5711, read-out: MIC of Iron Chelators

OCCN1CCN(Cc2ccc(O)c3ncccc23)CC1 [VK28, 5-(4-(2-hydroxyethyl)piperazin-1-ylmethyl)-8-hydroxyquinoline]
MIC (K. pneumonia; ATCC700603, ATCC 700603): > 500 µg/mL | MIC (K. pneumonia; BAA2146, BAA-2146): > 500 µg/mL | MIC (S. aureus; ATCC25923, ATCC 25923): 250 µg/mL | MIC (S. aureus; ATCC 43300 (MRSA)): 250 µg/mL | MIC (E. coli; ATCC35218, ATCC 35218): > 500 µg/mL | MIC (E. coli; [4]): > 500 µg/mL | MIC (P. aeruginosa; ATCC27853, ATCC 27853): > 500 µg/mL | MIC (P. aeruginosa; PAO1): > 500 µg/mL | MIC (Acinetobacter baumannii; [5]): 125 µg/mL | MIC (Acinetobacter baumannii; [6]): 125 µg/mL | FIC [1, 7]: 1.25 | FIC [1, 8]: 0.75 | FIC [1, 9]: 0.75 | FIC [1, 10]: 1.25 | FIC [1, 11]: 0.75 | FIC [1, 12]: 1.25 | FIC [1, 13]: 1.25 | FIC [1, 14]: 0.75 | FIC [1, 15]: 2.25 | FIC [1, 16]: 1.25 | MIC [2, 17]: 250 µg/mL | MIC [2, 18]: 250 µg/mL | MIC [2, 19]: 250 µg/mL | MIC [2, 20]: 250 µg/mL | MIC [2, 21]: 250 µg/mL | MIC [2, 22]: 250 µg/mL | MIC [2, 23]: 500 µg/mL | MIC [2, 24]: 500 µg/mL | MIC [2, 25]: 250 µg/mL | MIC [2, 26]: 250 µg/mL | MIC [2, 27]: 250 µg/mL | MIC [2, 28]: 250 µg/mL | MIC [2, 29]: 500 µg/mL | MIC [2, 30]: 250 µg/mL | MIC [2, 31]: 250 µg/mL | MIC [2, 32]: 250 µg/mL | MIC [2, 33]: 250 µg/mL | MIC [2, 34]: 500 µg/mL | MIC [2, 35]: 250 µg/mL | MIC [2, 36]: 500 µg/mL | MIC [2, 37]: 500 µg/mL | MIC [2, 38]: 500 µg/mL | MIC [2, 39]: 500 µg/mL | MIC [2, 40]: 250 µg/mL | MIC [2, 41]: 250 µg/mL | MIC [2, 42]: 250 µg/mL | MIC [2, 43]: 250 µg/mL | MIC [2, 44]: 250 µg/mL | MIC [2, 45]: 250 µg/mL | MIC [2, 46]: 250 µg/mL | synergy with rifampin, time kill method [3]: strong synergy | time-kill effect (E. coli EC35218; 1×MIC and 2×MIC VK28, CAMHB): bacteriostatic (considered bacteriostatic if the inoculum's size was reduced by 0 to <3 log 10 CFU/ml)

CNC(=O)c1c(O)c(=O)cc(C)n1C1CC1 [Apo6619, 1-cyclopropyl-3-hydroxy-6-methyl-4-oxo-1,4-dihydro-pyridine-2-carboxylic acid methylamide]
MIC (K. pneumonia; ATCC700603, ATCC 700603): > 500 µg/mL | MIC (K. pneumonia; BAA2146, BAA-2146): > 500 µg/mL | MIC (S. aureus; ATCC25923, ATCC 25923): > 500 µg/mL | MIC (S. aureus; ATCC 43300 (MRSA)): > 500 µg/mL | MIC (E. coli; ATCC35218, ATCC 35218): 250 µg/mL | MIC (E. coli; [4]): 250 µg/mL | MIC (P. aeruginosa; ATCC27853, ATCC 27853): > 500 µg/mL | MIC (P. aeruginosa; PAO1): > 500 µg/mL | MIC (Acinetobacter baumannii; [5]): 250 µg/mL | MIC (Acinetobacter baumannii; [6]): 250 µg/mL | FIC [1, 7]: 0.75 | FIC [1, 8]: 0.75 | FIC [1, 9]: 0.75 | FIC [1, 10]: 1.25 | FIC [1, 11]: 0.75 | FIC [1, 12]: 1.25 | FIC [1, 13]: 1.25 | FIC [1, 14]: 1.25 | FIC [1, 15]: 2.25 | FIC [1, 16]: 0.75 | MIC [2, 17]: 250 µg/mL | MIC [2, 18]: 500 µg/mL | MIC [2, 19]: 250 µg/mL | MIC [2, 20]: 500 µg/mL | MIC [2, 21]: 500 µg/mL | MIC [2, 22]: 500 µg/mL | MIC [2, 23]: 1000 µg/mL | MIC [2, 24]: 500 µg/mL | MIC [2, 25]: 250 µg/mL | MIC [2, 26]: 500 µg/mL | MIC [2, 27]: 500 µg/mL | MIC [2, 28]: 500 µg/mL | MIC [2, 29]: 500 µg/mL | MIC [2, 30]: 250 µg/mL | MIC [2, 31]: 500 µg/mL | MIC [2, 32]: 500 µg/mL | MIC [2, 33]: 500 µg/mL | MIC [2, 34]: 500 µg/mL | MIC [2, 35]: 500 µg/mL | MIC [2, 36]: 500 µg/mL | MIC [2, 37]: 500 µg/mL | MIC [2, 38]: 500 µg/mL | MIC [2, 39]: 250 µg/mL | MIC [2, 40]: 500 µg/mL | MIC [2, 41]: 250 µg/mL | MIC [2, 42]: 250 µg/mL | MIC [2, 43]: 500 µg/mL | MIC [2, 44]: 250 µg/mL | MIC [2, 45]: 250 µg/mL | MIC [2, 46]: 250 µg/mL | synergy with rifampin, time kill method [3]: strong synergy | time kill curves (E. coli EC35218; E. coli 35718, 1.5×MIC Apo6619 in combination with 0.75×MIC Rifampin, 0, 5 and 24 hours): combinational effect
